Assay results reported in US12220418B2 (MEDINCELL S.A., priority 2023, dated 2025).

Experiment: Open-label SAD and MAD study, pharmacokinetics in healthy subjects and patients
Format: in vivo, human
Details: oral, 2.5 to 20 mg/day for 7 days
Protocol: This study was an open-label, SAD, and MAD study to evaluate the safety, tolerability, and PK of Formulation 1 in healthy subjects and patients with a diagnosis of schizophrenia or schizoaffective disorder. Healthy subjects received subtherapeutic Formulation 1 doses of up to 105 mg and patients received therapeutic doses of up to 566 mg. […] Subjects and patients who met screening eligibility were assigned to 1 of 8 active cohorts, or the Vehicle Cohort, as detailed in Table 5.1 below.
All cohorts included assessments of safety, tolerability, and intensive PK sampling.
Except for the starting dose of 70 mg, the study followed an adaptive design in which the decision to dose-escalate with Formulation 1 was based on a review of the PK and safety data from the preceding lower dose of Formulation 1.
An extensive PK collection scheme was applied following the last oral dose to fully characterize the PK at steady-state.
In multiple-dose cohorts, the 3 doses of Formulation 1 were administered on day 1, day 29 (week 4) and day 57 (week 8), respectively.

## Cc1cc2c(s1)Nc1ccccc1N=C2N1CCN(C)CC1 [olanzapine, 2-methyl-4-(4-methyl-1-piperazinyl)-10H-thieno[2,3-b] [1,5]benzodiazepine]
  increase of systemic exposure (Cmax, AUCτ,ss) with dose: dose-proportional
